Patent US4985417A, “Treatment of glaucoma” (priority 1989, dated 1991)
Structures can show the parent of a compound that is named as a salt.

What was measured:
[1] = target: carbonic anhydrase; experiment: carbonic anhydrase inhibition (concentration for 50% inhibition); format: biochemical; settings: carbonic anhydrase inhibitory properties; read-out: Conc. for 50% Inhibition
[2] = cited from earlier work

| IC50 [1] | Compound | water solubility [2] |
| --- | --- | --- |
| 0.0675 µM | CC(=O)N1CCC[C@H]1C(=O)Nc1ccc(S(N)(=O)=O)cc1 [4-(N-acetyl-L-prolyl-amino)benzenesulfonamide] |  |
|  | CC(=O)Nc1nnc(S(N)(=O)=O)s1 [Acetazolamide, acetazolamide] | about 0.01 % w/v |
| 0.0949 µM | NS(=O)(=O)c1ccc(NC(=O)[C@@H]2CCCN2)cc1 [4-(L-prolylamino)benzenesulfonamide hydrochloride] |  |
